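Grown in 96-well plates, cells were treated for 48 hours with each compound at five concentrations. Insufficient inhibition: endpoint recorded as highest concentration tested. TGI is the concentration that stops growth completely.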 Residues, ends and D or L forms follow the SMILES beside them. *: point of attachment. Boc = CC(C)(C)OC(=O)*; OBn = c1ccc(CO*)cc1
Experiments:
Test in all cases: NCI-60 cell line screen, 48 h
U251 CNS = tested on: U251 CNS
MALME-3M melanoma = tested on: MALME-3M melanoma
MDA-N = tested on: MDA-N
BT-549 breast = tested on: BT-549 breast
HCC-2998 colon = tested on: HCC-2998 colon
RPMI-8226 leukemia = tested on: RPMI-8226 leukemia
SN12C renal = tested on: SN12C renal
HCT-15 colon = tested on: HCT-15 colon
UACC-257 melanoma = tested on: UACC-257 melanoma
NCI-H460 lung = tested on: NCI-H460 lung
MOLT-4 leukemia = tested on: MOLT-4 leukemia
SR leukemia = tested on: SR leukemia
COLO 205 colon = tested on: COLO 205 colon
IGROV1 ovarian = tested on: IGROV1 ovarian
HL-60(TB) leukemia = tested on: HL-60(TB) leukemia
SK-MEL-2 melanoma = tested on: SK-MEL-2 melanoma
TK-10 renal = tested on: TK-10 renal
SNB-75 CNS = tested on: SNB-75 CNS
MDA-MB-231 breast = tested on: MDA-MB-231 breast

Compound	TGI (U251 CNS) [µM]	TGI (MALME-3M melanoma) [µM]	TGI (MDA-N) [µM]	TGI (BT-549 breast) [µM]	TGI (HCC-2998 colon) [µM]	TGI (RPMI-8226 leukemia) [µM]	TGI (SN12C renal) [µM]	TGI (HCT-15 colon) [µM]	TGI (UACC-257 melanoma) [µM]	TGI (NCI-H460 lung) [µM]	TGI (MOLT-4 leukemia) [µM]	TGI (SR leukemia) [µM]	TGI (COLO 205 colon) [µM]	TGI (IGROV1 ovarian) [µM]	TGI (HL-60(TB) leukemia) [µM]	TGI (SK-MEL-2 melanoma) [µM]	TGI (TK-10 renal) [µM]	TGI (SNB-75 CNS) [µM]	TGI (MDA-MB-231 breast) [µM]
Cc1ccc(N=NN(C)C(=O)C(C)N)cc1 (stereo not drawn)	> 100	> 100	> 100	> 100	> 100	> 100	> 100	> 100	> 100	> 100	> 100	> 100	> 100	> 100	> 100	> 100	> 100	> 100	
CC(C)CC(NC(=O)OC(C)(C)C)C(=O)N1CCCC1C(=O)OCc1ccccc1 (stereo not drawn) (Boc-Leu-Pro-OBn; configuration not given here)	> 100	> 100	> 100	> 100			> 100	> 100	> 100			> 100	> 100	> 100		> 100	> 100	> 100	> 100
Cc1ccc(/C=C2\CCCC(CN(C)C)C2=O)cc1 (stereo not drawn)	26.4	3.77	3.85	6.4	27.4		3.91	4.23	3.99	13.1	> 100		3.13	4.15	> 100	15.4	8.26	20.3	3.08
O=[N+]([O-])/C(C(Cl)=C(Cl)Cl)=C(\Nc1ccccc1)n1nnc2ccccc21	> 100	> 100	> 100	70.2	> 100	93	> 100	> 100	> 100	> 100	> 100		> 100			75.2		> 100	> 100
CO[C@@H]1C[C@H]2N3CC[C@@]2(c2cc4c(cc2C3)OCO4)[C@H]2O[C@@H]12	> 100	> 100	> 100	> 100	> 100	> 100	> 100	> 100	> 100	> 100	> 100		2.24	> 100	> 100	> 100	> 100	> 100	> 100
COc1cc([C@@]23OC[C@@H]4[C@@H](OC[C@@H]42)c2cc4c(cc23)OCO4)cc(OC)c1OC	> 74.5	> 100	> 100	> 66.4	0.0241	> 77.1		> 100	> 100		> 100	> 77		> 100		62.8	> 100	> 100	< 0.01
CCOC(=O)c1c(-c2ccc(Br)cc2)ccn1C	> 10	> 10	> 10	> 10	> 10	> 10	> 10	> 10	> 10	> 10	> 10		> 10	> 10	> 10	> 10	> 10	> 10	> 10
COc1ccccc1N=N/C(=N\NC(=O)c1ccc(C)cc1)c1ccc(N(CCC#N)CCC#N)cc1C	> 100	77.4	> 100	> 100	> 100	> 100	> 100	> 100	> 100	> 100	> 100	> 100	37.3	> 100		> 100	> 100	> 100	> 100
NC(Cc1ccc(S(=O)(=O)O)cc1)C(=O)NC(Cc1ccc(S(=O)(=O)O)cc1)C(=O)NC(Cc1ccc(S(=O)(=O)O)cc1)C(=O)O (stereo not drawn)	> 100	> 100	> 100	> 100	> 100	> 100	> 100	> 100	> 100	> 100	> 100		> 100	> 100	> 100	> 100	> 100	> 100	> 100
COC(=O)C1=CN(C2CCCCC2)C2(c3ccccc3)c3ccccc3C(=O)OC(=O)C12 (stereo not drawn)	> 100	> 100	> 100	> 100	> 100		> 100	> 100	> 100	> 100	> 100		> 100	> 100	> 100	> 100	> 100	> 100	> 100
COc1ccc(/C=C2/NC(=S)N=C2Cl)cc1	> 100	> 100	> 100			> 100	> 100	> 100	> 100		> 100	> 100	> 100	> 100	> 100	> 100	> 100	> 100	> 100
Nc1c(N2CCOCC2)c(=O)nc2[nH]/c(=C\c3ccccc3)c(=O)n12	> 100	> 100	> 100		> 100	> 100	> 100	> 100	> 100	> 100	> 100	> 100	> 100	> 100	57.3		> 100	> 100	> 100
O=c1c(NO)c([N+](=O)[O-])cnn1-c1ccccc1	8.07	12	4.02	2.93	9.86	34	7.59	11.6	13.4	13.1	10.5		9.85	41.1	3.14	31.4	33.2	28.4	

Reference: PubChem BioAssay (NCI)
